The record followed here is PMC10535741, “Styrylpyridinium Derivatives for Fluorescent Cell Imaging” (Pharmaceuticals, 2023).

The nature of data set [1]: MTT cytotoxicity assay, BHK-21. It is filed as cell-based, Syrian hamster. The settings on record: Syrian hamster. An excerpt: (§1) For selected compounds, 6a–6f, we performed a determination of the cytotoxicity in a wider variety of cancer and non-cancerous cell lines (see Table S2, Supplementary Materials) in order to learn the characteristic features of selectivity or the similarity of biological properties.
(§2) The HT-1080 (human connective tissue fibrosarcoma, ATCC® CCL-121™), MH-22A (mouse hepatocarcinoma, ECACC Cat. No. 96121721), A-549 (human lung carcinoma, ATCC® CCL-185™), NIH3T3 (Swiss Albino mouse embryo fibroblast, ECACC Cat. No. 93061524), Hek293 (human embryonic kidney, ATCC® CRL-1573™), BHK-21 (Syrian hamster kidney, ATCC® CCL-10™), A-431 (human epidermoid carcinoma, ATCC® CRL-1555™), Saos-2 (human osteosarcoma, ATCC® HTB-85™), HeLa (human epitheloid cervix carcinoma, ATCC® CCL-2™), U937 (human myeloid leukaemia, ATCC® CRL-1593.2™), C6 (rat glioma, ATCC® CCL-107™), and B16-F10 (murine melanoma, ATCC® CRL-6475™) cell lines were obtained from the American Type Culture Collection (ATCC) and European Collection of Authenticated Cell Cultures (ECACC).
(§3) HT-1080, MH-22A, A-549, NIH3T3, BHK-21, A-431, HeLa, and B16-F10 cells were cultured in Dulbecco’s Modified Eagle’s Medium (DMEM) with 2 mM glutamine and 10% foetal bovine serum (FBS). Hek293 cells were cultured in Eagle’s Minimum Essential Medium with 10% foetal bovine serum. U937 cells were cultured in RPMI-1640 Medium with 2 mM glutamine and 10% foetal bovine serum. C6 cells were cultured in Ham’s F12 Medium with 2 mM glutamine and 10% foetal bovine serum. Saos-2 cells were cultured in McCoy’s 5a Medium with 2 mM glutamine and 10% foetal bovine serum. The cells were incubated at 37 °C with 5% CO2, 95% air, and complete humidity. Once ~90% confluence was reached, they were detached using 0.05% trypsin/EDTA and counted. The cells were plated at optimally determined densities for the logarithmic phase of growth. These cells were then suspended at a concentration of 4000 cells/well for HT-1080, MH-22A, A-549, NIH3T3, BHK-21, A-431, HeLa, B16-F10, Hek293, and Saos-2 cells and a concentration of 9000 cells/well for U937, C6, Hek293, and GM08402 cells and added onto a 96-well plate. For background absorption, some wells remained cell free, i.e., as a blank control. Cells were incubated for 72 h at 37 °C and 5% CO2 where they were exposed to a media containing serial dilutions of the investigated compounds (n = 3). Cell viability was measured using the 3-(4,5-dimethylthiazol-2-yl)-2,5-diphenyl-tetrazolium bromide (MTT) assay. In brief, after incubating with compounds, the culture medium was removed and fresh medium with 0.2 mg/mL MTT was added to each well of the plate. After incubation (3 h, 37 °C, 5% CO2), the medium with MTT solution was removed and replaced with 200 µL DMSO and 25 µL Sorenson’s glycine buffer (glycine 0.1 M, NaCl 0.1 M, pH: 10.5 with 0.1 M NaOH). The plate was shaken for 15 min at room temperature and the optical density (OD) of the wells was determined using a multichannel spectrophotometer (Thermo Scientific Multiskan EX) at 540 nm. The quantity of the control cells was taken in calculations as 100%. The IC50 value was calculated using the program Graph Pad Prism® 3.0.
(§4) The HT-1080 (human connective tissue fibrosarcoma, ATCC® CCL-121™), MH-22A (mouse hepatocarcinoma, ECACC Cat.No. 96121721), A-549 (human lung carcinoma, ATCC® CCL-185™), NIH 3T3 (mouse Swiss Albino embryo fibroblast, ECACC Cat.No. 93061524), Hek293 (human embryonic kidney, ATCC® CRL-1573™), BHK-21 (hamster Syrian kidney, ATCC® CCL-10™), A-431 (human epidermoid carcinoma, ATCC® CRL-1555™), Saos-2 (human oste osarcoma, ATCC® HTB-85™) HeLa (human epitheloid cervix carcinoma, ATCC® CCL-2™), U937 (human myeloid leukaemia, ATCC® CRL-1593.2™), C6 (rat glioma, ATCC® CCL-107™), B16-F10 (murine melanoma, ATCC® CRL-6475™) cell lines were obtained from American Type Culture Collection (ATCC) and European Collection of Authenticated Cell Cultures […]
(§5) Table S2. […]
(Tetrazolium assays rely on reduction of a dye to a coloured formazan, in cell work by metabolically active cells.)

The nature of data set [2]: UV/Vis absorption spectra in DMSO. The following applies: 0.33 mM for 6a,b,d,f,g, 5 mM for 6c,e. It is filed as physicochemical. The protocol:
The resonance structures of compounds 6d,e (Figure 2a) show a possibly intramolecular charge transfer between the julolidine moiety and the pyridinium unit. The normalised fluorescence spectra of the tested compounds 6a–e and 7a,b in DMSO solution (Figure 2c) and the fluorescence spectra of compound 6e in various media (Figure 2d) were measured using a spectrophotometer multiplate reader (Infinite M1000). The UV/Vis spectra in DMSO solution of compounds 6a–g (Figure 2b) were reordered with a UV/Vis spectrophotometer, and the fluorescence spectra of compound 6e in EtOH–glycerol mixtures (Figure 2e) were collected with a Spectrofluorometer FS5.
The spectral properties (absorption and fluorescence maximum in DMSO solution) of compounds 6a–e and 7a,b, UV spectral data (extinction coefficient (log ε) and absorption maximum), values of Stokes’ shift, and fluorescence quantum yield are presented in Table 3.

A further data set can be described thus: in vitro. The class given is cell-based, mouse. The settings on record: mouse.
Text: as §1, §2, §3, §4, §5

The mark [3] stands for this setting: non-cancerous cell line, MTT, 72 h, read-out: Cytotoxicity IC50 NIH3T3.

A word on the IC50: it is the concentration that gives 50% inhibition. Take `CCCCCCCCCCCC[n+]1ccc(C=Cc2cc(OC)c(OC)c(OC)c2)cc1.[Br-]` [Compound 6a, 4-(3,4,5-trimethoxystyryl)-N-dodecylpyridinium bromide]: the half-maximal inhibitory concentration (IC50) at 72 h in data set [1] (non-cancerous cell line, MTT, 72 h, read-out: Cytotoxicity IC50 BHK-21) was found to be 1.01 mg/L; in “in vitro” (setting [3]), 1.23 mg/L. Besides, in data set [2], the “abs. max., λ, nm” value is given as 384 nm. Moreover, the “log ε” value in data set [2] came to 5.46.

As for `CCCCCCCCCCCCCCCC[n+]1ccc(C=Cc2cc(OC)c(OC)c(OC)c2)cc1.[Br-]` [Compound 6b], in data set [2], the “abs. max., λ, nm” value amounted to 385 nm and the “log ε” value worked out at 5.23.

Turning to `CCCCCCCCCCCCCCCC[n+]1ccc(C=CC=Cc2ccc(OC)cc2)cc1.[Br-]` [Compound 6c, 1-hexadecyl-4-(4-(4-methoxyphenyl)buta-1,3-dien-1-yl)pyridin-1-ium bromide], the IC50 at 72 h was found to be 0.35 mg/L in data set [1] and 0.24 mg/L in “in vitro”. The “abs. max., λ, nm” value in data set [2] was determined as 408 nm. Besides, the “log ε” value in data set [2] is recorded as 4.26.

`CCCCCCCCCCCC[n+]1ccc(C=Cc2cc3c4c(c2)CCCN4CCC3)cc1.[Br-]` [Compound 6d, 1-dodecyl-4-(2-(2,3,6,7-tetrahydro-1H,5H-pyrido[3,2,1-ij]quinolin-9-yl)vinyl)pyridin-1-ium bromide]: the IC50 at 72 h in data set [1] worked out at 0.082 mg/L; in the data set “in vitro” (setting [3]), 0.056 mg/L.

For the compound `CCCCCCCCCCCCCCCC[n+]1ccc(C=CC=Cc2cc3c4c(c2)CCCN4CCC3)cc1.[Br-]` [Compound 6e, 1-hexadecyl-4-(4-(2,3,6,7-tetrahydro-1H,5H-pyrido[3,2,1-ij]quinolin-9-yl)buta-1,3-dien-1-yl)pyridin-1-ium bromide], the concentration for half-maximal inhibition (IC50) at 72 h in data set [1] is 2.7 mg/L. Also, in data set [2], the “abs. max., λ, nm” value is listed as 520 nm and the “log ε” value was found to be 4.02. In the data set “in vitro” (setting [3]), the IC50 at 72 h was 3.2 mg/L.
